In paper PMC12332266 (Frontiers in Pharmacology, 2025):
Entries after “also recorded” stand apart in the source; their conditions may differ. Like-named read-outs stand apart in the source and are kept apart here.

Assays:
[1] = system: hiPSC-CM (iCell Cardiomyocytes^2); experiment: RTCA CardioECR assessment (impedance and electrophysiology parameters); settings: for RTCA, MEC (CI) / Cell index (CI) MEC: hiPSC-CM; for RTCA, MEC (CI): change ≥20%, Table 2; for Cell index (CI) MEC: 72-hour treatment, lowest concentration causing at least 20% change from baseline
Outline: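 iCell^2 cardiomyocytes on fibronectin-coated ePlates monitored continuously by impedance for cell index, beating rate and amplitude. Field potential duration and spike amplitude were recorded from day 4–6 after monolayer formation. Data were double-normalized to DMSO control and baseline, with variability given as SD.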

[2] = system: hiPSC-CM (iCell Cardiomyocytes^2); experiment: Intracellular miRNA expression by RT-qPCR in hiPSC-CM pellets after 72-hour treatment; settings: for fold induction at 0.0003 µM / fold induction at 0.003 µM / fold induction at 0.03 µM / fold induction at 0.3 µM / fold induction at 0.1 µM / fold induction at 1 µM / fold induction at 3 µM: Homo sapiens
Outline: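 After 72-hour treatment and RTCA CardioECR assessment, total RNA from hiPSC-CM pellets was reverse transcribed, pre-amplified and quantified by TaqMan RT-qPCR against a 17-miRNA panel. Triplicates were pooled, so no statistical analysis was performed.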

[3] = ref extensive literature search, cited from earlier work
[4] = system: hiPSC-CM (iCell Cardiomyocytes^2); experiment: miRNA in hiPSC-CM culture media by RT-qPCR at 24, 48 and 72 h post-treatment; settings: for hsa-miR-133b in culture media, in words: 24, 48, 72 h, arsenic trioxide 0.48 μM, milrinone 3 μM, vincristine 0.3 μM, erlotinib 7.7 μM; for hsa-miR-133b in culture media, in words / hsa-miR-187-3p in culture media, in words: doxorubicin 0.1 μM, vinblastine 0.3 μM;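 on all read-outs here: medium RNA quantified by RT-qPCR, CT-values normalized to housekeeping miRNAs, compared against DMSO control, doses chosen from the MEC for CI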
Method: To extract total RNA from the culture media, hiPSC-CM were plated on 24-well plates by seeding 275,000 cells per mL per well. hiPSC-CM were maintained for 7 days in 200 µL of iCell^2 Maintenance Medium (iCell^2 MM; FCDI) for the 48-well ePlate and in 1 mL for 24-well plate, before drug treatment. Culture media change was performed every 2 days.
Stock solutions were diluted 1:1000 in iCell^2 MM before treatment and equilibrated at 37°C. As vehicle control, DMSO 0.1% was added to the media. Drug treatments on biological replicates (n = 3) were refreshed daily, and culture media was collected for further miRNA analysis. After 72 h, cell pellets were collected and stored at −80°C until total RNA extraction.
hiPSC-CM culture media was collected daily from 24-well plates, and centrifuged (+4°C, 11,000 rpm) for 5 min to remove cellular debris/cells. Total RNA was extracted from 300 µL of supernatant by Trizol/Chloroform phase separation and purification of total RNA by miRNeasy 96 Kit (Qiagen, Hilden, Germany). The spike-in control cel-miR-39 (Qiagen, Hilden, Germany) was used to check the quality of samples and PCR efficiency. DNase treatment (RNase-Free DNase Set (Qiagen, Hilden, Germany)) was applied according to the manufacturer’s instructions. After the RNA extraction, the same RT-qPCR protocol as for hiPSC-CM lysate was followed. Multiple unpaired t-tests were performed to compare delta CT-values (CT-values normalized to the housekeeping miRNAs) of the treatment groups to the DMSO control.
Analysis of miRNA in the culture media of hiPSC-CM treated with structural cardiotoxicants was performed at 24-, 48- and 72-hour post-treatment. […] The treatment concentrations were selected based on the MEC for CI to ensure that the preliminary evidence of cardiotoxicity in hiPSC-CMs could potentially lead to miRNA release in the culture media.

[5] = 72 h, read-out: hsa-miR-7-5p fold change
[6] = 72 h, read-out: hsa-miR-29a-5p fold change
[7] = 72 h, read-out: hsa-miR-96-5p fold change
[8] = 72 h, read-out: hsa-miR-126-3p fold change
[9] = 72 h, read-out: hsa-miR-133b fold change
[10] = 72 h, read-out: hsa-miR-146b-5p fold change
[11] = 72 h, read-out: hsa-miR-182-5p fold change
[12] = 72 h, read-out: hsa-miR-185-3p fold change
[13] = 72 h, read-out: hsa-miR-187-3p fold change
[14] = 72 h, read-out: hsa-miR-208b-3p fold change
[15] = 72 h, read-out: hsa-miR-365a-5p fold change

COc1cccc2c1C(=O)c1c(O)c3c(c(O)c1C2=O)C[C@@](O)(C(=O)CO)C[C@@H]3O[C@H]1C[C@H](N)[C@H](O)[C@H](C)O1 [Doxorubicin]
RTCA, MEC (CI) [1]: 0.1 µM (CI) | Contractility Amplitude MEC ([1]; human, 72 h): 0.1 µM | Spike Amplitude (SA) MEC ([1]; human, 72 h): 0.01 µM | intracellular miRNA upregulation in hiPSC-CM, in words [2]: lowest upregulation of miRNAs was detected at the highest concentration tested | miRNAs hiPSC-CM pellet, MEC overall [2]: 0.03 µM | miRNAs upregulated at the MEC overall (hiPSC-CM pellet) [2]: miR-34a-5p, miR-146b-5p, miR-187-3p | Cmax total ([3]; Supplementary Table 1): 1600 nM | Cmax total ([3]; Table 1): 1600 nM | hsa-miR-133b in culture media, in words [4]: upregulation was detected only after 72 h of treatment; also recorded: significant upregulation was observed only after 72-hour treatment | hsa-miR-187-3p in culture media, in words [4]: detected in the culture media only following 72-hour exposure

CC[C@]1(O)C[C@@H]2CN(CCc3c([nH]c4ccccc34)[C@@](C(=O)OC)(c3cc4c(cc3OC)N(C)[C@H]3[C@@](O)(C(=O)OC)[C@H](OC(C)=O)[C@]5(CC)C=CCN6CC[C@]43[C@@H]65)C2)C1 [Vinblastine]
RTCA, MEC (CI) [1]: 0.3 µM | Beating Rate MEC ([1]; human, 72 h): 0.003 µM | Beating rate (BR) MEC ([1]; human, 72 h): 0.003 µM | Contractility Amplitude MEC ([1]; human, 72 h): 0.0003 µM | RTCA, MEC (BR) ([1]; human, 72 h): 0.003 µM | Spike Amplitude (SA) MEC ([1]; human, 72 h): 0.0003 µM | miRNAs hiPSC-CM pellet, MEC overall [2]: 0.0003 µM | miRNAs upregulated at the MEC overall (hiPSC-CM pellet) [2]: miR-126-3p, miR-133b, miR-185-3p | Cmax total ([3]; Supplementary Table 1): 35 nM | Cmax total ([3]; Table 1): 35 nM | hsa-miR-133b in culture media, in words [4]: upregulation was detected only after 72 h of treatment; also recorded: significant upregulation was observed only after 72-hour treatment | hsa-miR-187-3p in culture media, in words [4]: detected in the culture media only following 72-hour exposure

CC[C@]1(O)C[C@H]2CN(CCc3c([nH]c4ccccc34)[C@@](C(=O)OC)(c3cc4c(cc3OC)N(C=O)[C@H]3[C@@](O)(C(=O)OC)[C@H](OC(C)=O)[C@]5(CC)C=CCN6CC[C@]43[C@@H]65)C2)C1 [Vincristine]
Cell index (CI) MEC [1]: 0.003 µM | RTCA, MEC (CI) [1]: 0.003 µM (CI) | Cell Index MEC ([1]; human, 72 h): 0.003 µM | Contractility Amplitude MEC ([1]; human, 72 h): 0.003 µM | Spike Amplitude (SA) MEC ([1]; human, 72 h): 0.003 µM | intracellular miRNA upregulation in hiPSC-CM, in words [2]: smallest fold change | miRNAs hiPSC-CM pellet, MEC overall [2]: 0.0003 µM | miRNAs upregulated at the MEC overall (hiPSC-CM pellet) [2]: miR-126-3p | hsa-miR-7-5p fold change, intracellular ([2]; 0.3 µM, 72 h): 1.0 | hsa-miR-29a-5p fold change, intracellular ([2]; 0.3 µM, 72 h): 1.0 | hsa-miR-96-5p fold change, intracellular ([2]; 0.3 µM, 72 h): 0.8 | hsa-miR-126-3p fold change, intracellular ([2]; 0.3 µM, 72 h): 1.4 | hsa-miR-133b fold change, intracellular ([2]; 0.3 µM, 72 h): 0.3 | hsa-miR-146b-5p fold change, intracellular ([2]; 0.3 µM, 72 h): 0.3 | hsa-miR-182-5p fold change, intracellular ([2]; 0.3 µM, 72 h): 0.4 | hsa-miR-185-3p fold change, intracellular ([2]; 0.3 µM, 72 h): 1.1 | hsa-miR-187-3p fold change, intracellular ([2]; 0.3 µM, 72 h): 0.7 | hsa-miR-208b-3p fold change, intracellular ([2]; 0.3 µM, 72 h): 2.2 | fold induction at 0.0003 µM [2, 5]: 1 | fold induction at 0.003 µM [2, 5]: 1.1 | fold induction at 0.03 µM [2, 5]: 0.9 | fold induction at 0.3 µM [2, 5]: 1 | fold induction at 0.0003 µM [2, 6]: 0.4 | fold induction at 0.003 µM [2, 6]: 0.7 | fold induction at 0.03 µM [2, 6]: 1 | fold induction at 0.3 µM [2, 6]: 1 | fold induction at 0.0003 µM [2, 7]: 0.3 | fold induction at 0.003 µM [2, 7]: 0.6 | fold induction at 0.03 µM [2, 7]: 0.3 | fold induction at 0.3 µM [2, 7]: 0.8 | fold induction at 0.0003 µM [2, 8]: 3.2 | fold induction at 0.003 µM [2, 8]: 1.9 | fold induction at 0.03 µM [2, 8]: 1.3 | fold induction at 0.3 µM [2, 8]: 1.4 | fold induction at 0.0003 µM [2, 9]: 0.3 | fold induction at 0.003 µM [2, 9]: 0.2 | fold induction at 0.03 µM [2, 9]: 0.4 | fold induction at 0.3 µM [2, 9]: 0.3 | fold induction at 0.0003 µM [2, 10]: 1.2 | fold induction at 0.003 µM [2, 10]: 0.7 | fold induction at 0.03 µM [2, 10]: 0.4 | fold induction at 0.3 µM [2, 10]: 0.3 | fold induction at 0.0003 µM [2, 11]: 0.4 | fold induction at 0.003 µM [2, 11]: 0.5 | fold induction at 0.3 µM [2, 11]: 0.4 | fold induction at 0.0003 µM [2, 12]: 1.4 | fold induction at 0.003 µM [2, 12]: 2 | fold induction at 0.03 µM [2, 12]: 1 | fold induction at 0.3 µM [2, 12]: 1.1 | fold induction at 0.0003 µM [2, 13]: 1.3 | fold induction at 0.003 µM [2, 13]: 1.9 | fold induction at 0.03 µM [2, 13]: 1.4 | fold induction at 0.3 µM [2, 13]: 0.7 | fold induction at 0.0003 µM [2, 14]: 0.8 | fold induction at 0.003 µM [2, 14]: 1.3 | fold induction at 0.03 µM [2, 14]: 1.6 | fold induction at 0.3 µM [2, 14]: 2.2 | fold induction at 0.0003 µM [2, 15]: 0.6 | fold induction at 0.003 µM [2, 15]: 1.6 | fold induction at 0.03 µM [2, 15]: 1 | intracellular miRNA upregulation in hiPSC-CM, in words ([2]; human, 72 h): intracellular miR-208-3p was upregulated | Cmax total ([3]; Supplementary Table 1): 50 nM | Cmax total ([3]; Table 1): 50 nM | hsa-miR-126-3p fold change, culture media ([4]; 0.3 µM, 24h): 0.4 | hsa-miR-208b-3p fold change, culture media ([4]; 0.3 µM, 24h): 0.9 | hsa-miR-[…] change, culture media ([4]; 0.3 µM, 24h): 1.6 | hsa-miR-208b-3p fold change, culture media ([4]; 0.3 µM, 48h): 1.3 | hsa-miR-[…] change, culture media ([4]; 0.3 µM, 48h): 1.4 | hsa-miR-7-5p fold change, culture media ([4]; 0.3 µM, 72 h): 0.5 | hsa-miR-133b fold change, culture media ([4]; 0.3 µM, 72 h): 2.4 | hsa-miR-187-3p fold change, culture media ([4]; 0.3 µM, 72 h): 16.0 | hsa-miR-208b-3p fold change, culture media ([4]; 0.3 µM, 72 h): 2.3 | hsa-miR-[…] change, culture media ([4]; 0.3 µM, 72 h): 0.3 | hsa-miR-133b in culture media, in words [4]: increase that was not statistically significant

CCC1=C[C@@H]2CN(C1)Cc1c([nH]c3ccccc13)[C@@](C(=O)OC)(c1cc3c(cc1OC)N(C)[C@H]1[C@@](O)(C(=O)OC)[C@H](OC(C)=O)[C@]4(CC)C=CCN5CC[C@]31[C@@H]54)C2 [Vinorelbine]
Cell index (CI) MEC [1]: 0.1 µM | RTCA, MEC (CI) [1]: 0.1 µM | Beating Rate MEC ([1]; human, 72 h): 1 µM | Beating rate (BR) MEC ([1]; human, 72 h): 1 µM | Cell Index MEC ([1]; human, 72 h): 0.1 µM | Contractility Amplitude MEC ([1]; human, 72 h): 0.1 µM | Field Potential Duration MEC ([1]; human, 72 h): 1 µM | RTCA, MEC (BR) ([1]; human, 72 h): 1 µM | Spike Amplitude (SA) MEC ([1]; human, 72 h): 0.1 µM | intracellular miRNA upregulation in hiPSC-CM, in words [2]: smallest fold change | miRNAs hiPSC-CM pellet, MEC overall [2]: 0.1 µM | miRNAs upregulated at the MEC overall (hiPSC-CM pellet) [2]: miR-34a-5p, miR-146b-5p | fold induction at 0.1 µM [2, 5]: 1 | fold induction at 0.3 µM [2, 5]: 1.4 | fold induction at 1 µM [2, 5]: 0.9 | fold induction at 3 µM [2, 5]: 1.8 | fold induction at 0.1 µM [2, 6]: 0.4 | fold induction at 0.3 µM [2, 6]: 1.1 | fold induction at 1 µM [2, 6]: 0.2 | fold induction at 3 µM [2, 6]: 0.9 | fold induction at 0.1 µM [2, 7]: 1.3 | fold induction at 0.3 µM [2, 7]: 4.8 | fold induction at 1 µM [2, 7]: 0.9 | fold induction at 0.1 µM [2, 8]: 1.4 | fold induction at 0.3 µM [2, 8]: 2 | fold induction at 1 µM [2, 8]: 0.6 | fold induction at 3 µM [2, 8]: 0.2 | fold induction at 0.1 µM [2, 9]: 0.1 | fold induction at 0.3 µM [2, 9]: 0.2 | fold induction at 1 µM [2, 9]: 0.3 | fold induction at 3 µM [2, 9]: 0.1 | fold induction at 0.1 µM [2, 10]: 3.1 | fold induction at 0.3 µM [2, 10]: 1.1 | fold induction at 1 µM [2, 10]: 0.1 | fold induction at 3 µM [2, 10]: 0.2 | fold induction at 0.1 µM [2, 11]: 0.7 | fold induction at 1 µM [2, 11]: 0.1 | fold induction at 0.1 µM [2, 12]: 1.2 | fold induction at 0.3 µM [2, 12]: 1.9 | fold induction at 1 µM [2, 12]: 0.9 | fold induction at 3 µM [2, 12]: 0.6 | fold induction at 0.1 µM [2, 13]: 1.1 | fold induction at 0.3 µM [2, 13]: 0.9 | fold induction at 1 µM [2, 13]: 0.8 | fold induction at 3 µM [2, 13]: 0.3 | fold induction at 0.1 µM [2, 14]: 0.8 | fold induction at 0.3 µM [2, 14]: 1.7 | fold induction at 1 µM [2, 14]: 0.7 | fold induction at 3 µM [2, 14]: 0.8 | fold induction at 0.3 µM [2, 15]: 2.4 | fold induction at 1 µM [2, 15]: 0.1 | Cmax total ([3]; Supplementary Table 1): 811 nM | Cmax total ([3]; Table 1): 810 nM
